Experimental data taken from a compilation of properties of binary mixtures (doi:10.1016/j.molliq.2017.12.017).

Experiment: xn = mol fraction of the nth substance listed
Conditions: 101 kPa

CC[n+]1ccn(C)c1.O=S(=O)([O-])C(F)(F)F + COCCO
speed of sound [m/s]
Conditions	298.15 K	303.15 K	308.15 K	313.15 K	318.15 K
x1 = 0.0531	1359	–	1327	1310.8	1294.7
x1 = 0.1062	1367	1351.6	1336.4	–	1305.4
x1 = 0.1999	–	1365.9	1351.6	1337.2	–
x1 = 0.2935	1392	1378.7	–	1351.8	1338.3
x1 = 0.3958	1403.5	1390.9	1378.3	1365.7	–
x1 = 0.4452	–	1396.2	1383.9	1371.6	1359.3
x1 = 0.5036	1413.9	1402	1390	1378	1366.1
x1 = 0.5752	1419.9	1408.2	1396.6	1385	–
x1 = 0.6452	–	1413.5	1402.1	1390.8	1379.4
x1 = 0.7142	1429.2	1417.9	1406.7	1395.5	1384.3
x1 = 0.8049	–	1422.5	1411.3	–	1389.2
x1 = 0.8751	1436.5	1425.1	1413.9	1402.8	1391.8
x1 = 0.9522	–	1427	1415.7	1404.5	–
x1 = 1	1435.8	–	1413.5	1402.4	1391.4

COCCO + CC[n+]1ccn(C)c1.O=S(=O)([O-])C(F)(F)F
x2 = 0
Conditions	speed of sound [m/s]
298.15 K	1342.3
308.15 K	1308.2
313.15 K	1290.8
318.15 K	1273.6
